Reference: patent US12686711B2, “DARIC interleukin receptors” (Regeneron Pharmaceuticals, Inc., priority 2017, dated 2026)

How the values were obtained:
[1] = target or test not stated; chemically modified non-immunosuppressive rapamycin analogue; cited from earlier work
donor PBMCs = test: IFNγ production in IL-12 pre-treated transduced and untransduced donor PBMCs; format: cell-based; details: untransduced controls and IL-18R-DARIC-GFP transduced cells; pre-treated 50 ng/mL human recombinant IL-12 for 24 hours, then medium with 100 ng/mL human recombinant IL-18; FIG. 2
Text: IL-18 receptor (IL-18R) DARIC binding and signaling components were designed, constructed, and verified. An IL-18R DARIC lentiviral vector was constructed comprising an MNDU3 promoter operably linked to a polynucleotide encoding: a DARIC signaling component (CD8α-signal peptide, an FRB variant (T82L), and an IL-18R1 transmembrane and signaling domain); a P2A sequence; and a DARIC binding component (an Igκ-signal peptide, an FKBP12 domain, and a IL-18RAP transmembrane and signaling domain). An IL-18R DARIC-GFP lentiviral vector was constructed by appending another polynucleotide encoding a P2A sequence and GFP to the to the polynucleotide encoding the IL-18R1 signaling domain in aforementioned vector. See, e.g., SEQ ID NOs: 1-4.
Donor PBMCs were transduced with LVV encoding IL-18R-DARIC-GFP. Transduced PBMCs and untransduced control PBMCs were pre-treated with 50 ng/mL human recombinant IL-12 for 24 hours. The treated cells were washed and cultured in medium only, medium with 100 ng/mL human recombinant IL-18 or medium with 1 nM rapamycin. […] FIG. 2.

Molecule	IC50 [1] [µM]	IFNγ production when cultured in IL-18 (donor PBMCs)
CO[C@H]1[C@@H](O)[C@H](C)C[C@H](C)/C=C/C=C/C=C(\C)[C@@H](c2c[nH]c3c(C)cccc23)C[C@@H]2CC[C@@H](C)[C@@](O)(O2)C(=O)C(=O)N2CCCC[C@H]2C(=O)O[C@H]([C@H](C)C[C@@H]2CC[C@@H](O)[C@H](OC)C2)C[C@H](O)[C@H](C)/C=C(\C)[C@H]1O [AP21967, C-16-(S)-7-methylindolerapamycin]	0.01	
IL-18: human recombinant IL-18 cytokine used as positive control		increased IFNγ production in both untransduced controls and cells transduced with IL-18R-DARIC-GFP
